Test results: patent publication US20250049930A1, “PROTAC MOLECULES TARGETING FOXP3 AND USES THEREOF” (CEDARS-SINAI MEDICAL CENTER, priority 2022, published 2025)
Entries after “also recorded” stand apart in the source; their conditions may differ. No end group written: not given here.

System: RENCA tumors
Test: Subcutaneous RENCA tumor growth in mice
Type: in vivo
Conditions: s.c. RENCA in Balb/C mice, i.p. treatment from day 10, vs saline
Protocol: Mice: Balb/C mice, 5-8 weeks old, were purchased from Jackson laboratory (Ellsworth, Maine) and housed under pathogen free conditions. All experiments involving animals followed federal and state standards, which include the federal Animal Welfare Act and the NIH guide for the care and use of laboratory animals. The RENCA tumors were generated by subcutaneously injecting 2×10^5 tumor cells into the frank. The day tumor cells were injected was considered day 0. PF (0.1 mmol), PC (0.1 mmol) or P60 (100 ug) was administered i.p. twice a week starting on day 10; αPD1 (200 μg) was administered i.p. twice a week starting on day 5; temsirolimus (15 μg) was administered i.p. every other day, starting on day 10. All drugs were administered throughout the experimental course unless indicated. CD8 cells were depleted with a one-time αCD8 (200 μg) i.p. administration on day 2.
In cancer, Tregs can suppress the antitumor immune response, which is primarily mediated by CD8+ lymphocytes. Therefore, PF was administered to mice to enhance antitumor immunity and suppress growth of syngeneic mouse kidney cancer, which is considered an immunoresponsive cancer type. Mice tumors were established by injecting RENCA cells subcutaneously in the flank of Balb/C mice (5-7 mice per group). RENCA cells were injected subcutaneously to establish palpable tumors, and 10 days later mice were treated i.p., twice a week throughout the experiment, with PF, PC, P60 or Saline (FIG. 3D). Pomalidomide conjugated to (PEG)4 (PROTAC-control; PC) and P60 served as controls. […] In summary, PF decreased the immunosuppressive function of Tregs in vitro and decreased tumor growth in mice. […]
All immunotherapies, particularly when multi-drug combinations are involved, may have off-target effects. For example, drugs may have direct effects on the tumor, inhibiting tumor proliferation or inducing tumor apoptosis. Mice tumors were established by injecting RENCA cell subcutaneously in the flank of Balb/C mice (6-8 mice per group). 10 days later, mice were treated with PF twice per week. CD8 lymphocytes were depleted with αCD8 administered i.p. 2 days after injection of tumor cells. Mice in indicated groups received i.p. αPD1, twice a week, starting day 5 (FIG. 5A). Mice in indicated groups received i.p. temsirolimus every other day for 14 days, starting on days 10 (FIG. 5B). Tumor growth was monitored in these groups. […]

Row | Molecule | tumor growth, single agent
1 | CO[C@H]1C[C@@H]2CC[C@@H](C)[C@@](O)(O2)C(=O)C(=O)N2CCCC[C@H]2C(=O)O[C@H]([C@H](C)C[C@@H]2CC[C@@H](OC(=O)C(C)(CO)CO)[C@H](OC)C2)CC(=O)[C@H](C)/C=C(\C)[C@@H](O)[C@@H](OC)C(=O)[C@H](C)C[C@H](C)/C=C/C=C/C=C/1C [temsirolimus] | suppressed tumor growth
2 | RDFQSFRKMWPFFAM (not fully specified (some residues)) [P60] | Only PF produced a decrease in tumor growth; also recorded: no effect on RENCA tumor growth
